Results taken from patent US20220370636A1, “NICOTINAMIDE ADENINE DINUCLEOTIDE ACTIVATOR AND USE THEREOF” (University of South Florida, priority 2021, published 2022).
One block for each compound: values may come before it.

Legend:
recombinant Nampt = recombinant Nampt (Homo sapiens, UniProt P43490); assay: Recombinant Nampt enzymatic activity assay; settings: enzyme assay with recombinant Nampt
PI3K = assay: Ex vivo ischemia reperfusion with PI3K inhibitor LY294002, pAKT Western blot; set-up: species or system mice; settings: WT hearts; LY294002 15 μM prior to global ischemia
[1] = tested on: C57Bl/6J mice on a high-fat diet; settings: cited from earlier work

Chain of recombinant Nampt (P43490 whole entry, the tested form may be a part): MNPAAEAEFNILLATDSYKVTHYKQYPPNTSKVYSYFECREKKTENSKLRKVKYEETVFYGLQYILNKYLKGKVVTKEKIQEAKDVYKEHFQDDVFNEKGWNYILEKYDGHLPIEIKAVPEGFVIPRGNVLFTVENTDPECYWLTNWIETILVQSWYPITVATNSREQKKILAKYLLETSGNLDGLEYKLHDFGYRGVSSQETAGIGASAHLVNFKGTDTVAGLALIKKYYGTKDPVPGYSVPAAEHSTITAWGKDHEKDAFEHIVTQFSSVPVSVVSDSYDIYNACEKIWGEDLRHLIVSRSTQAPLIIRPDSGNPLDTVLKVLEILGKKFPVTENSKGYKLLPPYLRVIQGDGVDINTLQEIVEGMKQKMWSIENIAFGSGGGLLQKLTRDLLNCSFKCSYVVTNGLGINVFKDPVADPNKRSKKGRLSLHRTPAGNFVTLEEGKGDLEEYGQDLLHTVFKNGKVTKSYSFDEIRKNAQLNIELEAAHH

Nampt activity (recombinant Nampt): significantly decreased
Compound: O=C(/C=C/c1cccnc1)NCCCCC1CCN(C(=O)c2ccccc2)CC1 [FK866]

Compound: Cl.O=c1cc(N2CCOCC2)oc2c(-c3ccccc3)cccc12 [LY294002, 2-(4-Morpholinyl)-8-phenyl-1(4H)-benzopyran−4-one hydrochloride]
P7C3 based pAkt expression (PI3K): attenuated

Compound: COc1cccc(NCC(F)Cn2c3ccc(Br)cc3c3cc(Br)ccc32)c1 (stereo not drawn) [P7C3 A20]
fatty liver syndrome [1]: rescued
